These results are taken from patent US12098352B2, “Stem cell-based lung-on-chip models” (EMULATE, INC., priority 2018, dated 2024).

Entries after “also recorded” stand apart in the source; their conditions may differ.

Test [1] concerns ICAM1. In words: ICAM1 immunostaining of endothelial cells (HMECs) lining the vascular surface of the Chip. Type of test: cell-based, human. How it is done: FIG. 22A Effect of LPS on Vascular Expression of ICAM1. […] Representative images (20×) of endothelial cells (HMECs) lining the vascular surface of the Chip fixed and stained for ICAM1 (red) at 24 h post LPS treatment of the alveolar epithelial compartment. Nuclei are colored blue. […] IL-6, il-8 and MCP-1 have 40-90 fold increases in relation to untreated controls. FIG. 22C Detection of exemplary Lung-Specific Cytokines and Chemokines, IL-6; IL-8; MCP-1 and RANTES, in response to LPS stimulation. Co-cultures of Epithelium/Fibroblasts/Vasculature induced higher levels of cytokines than co-cultures of Epithelium/Vasculature; Fibroblasts/Vasculature or Vasculature alone.
Interconnectivity refers to the observation that adding a compound to the epithelial side may induce a cytokine mediated response in the endothelial side. […] In other words, inflamed epithelial cells modulate function of the endothelial cells.
Open-Top Organ-Chips were fixed in 10% neutral buffered formalin. Endothelial cells were stained inside the chip by performinutesg the immunofluorescence steps described below directly inside the microfluidic channel. Stroma equivalents were stained as described by the step below inside the chip or alternatively extracted from the chip and processed for immunohistochemistry analysis. […]

In test [2] the test system is Alveolus-Chip epithelium/endothelium barrier. In words: Barrier function assay (fluorescent dextran / Lucifer Yellow leakage) in Open-Top Alveolus-Chip. The format is cell-based, human. The source says: We studied interaction between different chip compartments by perturbating the system with biological and chemical stressors such as LPS, and H2O2 which are known to induce a reversible disruption of the cellular monolayer after acute administration both in vivo and in vitro. […] The presence of a strong barrier is indirectly confirmed by the presence of continuous pattern of E-cad and VE-cad in the monolayer of Alveolar epithelial and endothelial cell, respectively.
Given the limited availability of in vitro models that can closely mimic human alveolar epithelium function and/or its disease states, we explored whether a microfluidic Alveolus-Chip lined with the primary alveolar epithelial cells on an artificial lung stroma with embedded primary lung fibroblasts and pulmonary microvascular endothelial cells would model a lung injury state. To test this, we exposed the Alveolus-Chips to an acute damage generated by exposure to H2O2 under continuous infusion through the epithelium top channel, similarly to as it is […] administered in mice.
Air-Liquid interface was replaced by phenol red free MEM (GIBCO: 51200-038) and medium in the bottom fluidical spiraled channel substituted by one containing 1 mg/ml Lucifer Yellow CH, Lithium Salt (ThermoFisher: L453) or 0.1 mg/ml Dextran, Fluorescein, 3000 MW, Anionic, Lysine Fixable (ThermoFisher: D3306). Leakage of the fluorescent probe from the lumen of the spiraled channel to the epithelial compartment was collected from the outlet reservoirs after indicated hours of perfusion. The fluorescence intensity was measured with a 96-well fluorimeter at excitation/emission indicated by the manufacturer.

The subject of test [3] is epithelium-endothelium co-culture perfused with human whole blood. To be noted: LPS treatment of the alveolar lumen of epithelium-endothelium co-culture; cited from earlier work.
The subject of test [4] is cellular monolayer barrier. Kind of test: Barrier function in static transwell. Type of test: cell-based. To be noted: doses up to 100 ng/ml LPS, 10 mM H2O2.
Test [5] has as its system platelets. In words: Blood perfusion of LPS pretreated Alveolar-chip vascular channel. The format is cell-based, human. To be noted: LPS pretreated (inflamed) chip. Here is the method: For further validation on the functionality of the endothelial compartment, the vascular compartment comprising an endothelial cell lining, was exposed to blood under flow. In one embodiment, an LPS pretreated microfluidic Alveolar-chip was perfused with blood, i.e. blood was flowed through the spiral channel. In one embodiment, a sample of human blood, e.g. 5 ml of whole blood isolated the same day from a healthy person (e.g. in citrate or heparin anticoagulation compounds) was perfused through the bottom spiraled channel with Ca2+ and Mg2+ to counteract the anticoagulation compounds, at 30 ml/hour. […] Left, schematic diagrams of the upper channels blue and ports blue dots, and spiral lower vascular endothelial channel red and ports red dots. […] Larger pink areas represent aggregation of platelets and adhered platelets are observed at the lower sharp bend.

For the substance Lipopolysaccharide [LPS], in test [1] (LPS directly on endothelial cells, no epithelium), the “ICAM expression, endothelial cells exposed directly” value is given as “does not induce expression of ICAM”. Also, in test [1] (LPS on the alveolar epithelial compartment, 24 h), the “vascular expression of ICAM1” value was “induced vascular expression of ICAM1; also recorded: induces expression of ICAM on endothelial cells; also recorded: induces ICAM1 expression only in presence of epithelial cells”. In test [2] (LPS 10 ng/ml and/or H2O2 10 mM), the “effect of stressor on barrier function” value is “causes barrier breakdown and disruption of intracellular junction”. For the same substance, in test [2] (additional 2 days in fresh medium), the “reversibility of barrier breakdown after removal of stressor” value is given as “barrier breakdown in our chip was reversable”. In addition, in test [3], the thrombotic events result is recorded as “triggered thrombotic events”. The “loss of barrier function” value in test [4] is given as “dose dependent loss of barrier function”. Also, the “platelet response on blood perfusion” value in test [5] was “platelet adhesion and aggregation”.
